Experimental data taken from paper PMC5599605, “Production and Characteristics of a Novel Xylose- and Alkali-tolerant GH 43 β-xylosidase from Penicillium oxalicum for Promoting Hemicellulose Degradation” (Scientific Reports, 2017).

What was measured:
Xyl43 [1] = target: T1, Xyl43 (Penicillium oxalicum, UniProt S7ZRR2); test: pNPX hydrolysis, residual activity; format: biochemical; conditions: pNPX 1 mg/ml, pH 7.0, 50 °C, 30 min; D or L not stated
T1 construct: gene PDE_06306; full-length, 348 residues, no native signal peptide; alpha-factor secretion signal, C-terminal His6 tag kept; Pichia pastoris X-33 (pPICZalphaA)

Xyl43 [2] = target: T1, Xyl43; test: pNPX hydrolysis, Dixon plot; format: biochemical; conditions: substrate pNPX 0.5 and 1 mg/ml, pH 7.0, 50 °C; end product; described as uncompetitive; Table 1 prints 28.9
[3] = substrate: O=[N+]([O-])c1ccc(O[C@@H]2OC[C@@H](O)[C@H](O)[C@H]2O)cc1; test: p-nitrophenol release, Lineweaver-Burk plot; format: biochemical, Penicillium oxalicum; conditions: pH 7.0, 50 °C, 5 min, no xylose

With `OC1OC[C@H](O)[C@H](O)[C@H]1O` (stereo partly drawn) [arabinose] the “% of initial activity at 20 mM” value (Xyl43 [1]) was 88.7%.

`OC1OC[C@@H](O)[C@H](O)[C@H]1O` (stereo partly drawn) [xylose] showed a Ki (Xyl43 [2]) of 28.1 mM.

B1: Xyl43 (Penicillium oxalicum 114-2) (protein)
chain: MSSSTSSAPRPDPKPLVTHLYTADPSAHVFNNKIYIYPSHDRETDIAFNDNGDQYDMTDYHVFSMDAIDGPVTDSGVVLSAADVPWVSKQMWAPDAATKNGKYYLFFPARDHEGIFRIGVAVSDSPMGPFAPEKSYIPGSYSIDPAVFVDTDDSAYLYFGGIWGGQLQCWERADGSASASADPQMNGLVFNKSKSGPQEPSGAGVPALCPRVGQLSDDMLTFVSPPRELQILAPETGEPLAADDHERRFFEAAWMHKYKGKYYFSYSTGDSHYLVYATGDSPWGPFTYQGRILEPVLGWTTHHSIVEFQGKWYLFYHDCELSKGVDHLRSVKVREIVYDEEDKIHLA
notes: full-length, 348 residues, no native signal peptide; alpha-factor secretion signal, C-terminal His6 tag kept; Pichia pastoris X-33 (pPICZalphaA)
B1 gave a Km [3] of 4.05 mM.
